The numbers were not newly measured in EP4640075A1, “ORAL POUCHED PRODUCT WITH SELF-EMULSIFYING DELIVERY SYSTEM” (Nicoventures Trading Limited, priority 2024, dated 2025), which cites them from elsewhere.

For the data set the following is noted: Values obtained from PubChem or calculated.

On to tocopherol succinate, for which the “log(P)*” value was 10.2.
